Laboratory results as given in article PMC8151276, “An Integrated Approach toward NanoBRET Tracers for Analysis of GPCR Ligand Engagement” (Molecules, 2021).

Experiments:
[1] = target: T1, HTR7 (Homo sapiens, UniProt P34969); assay: NanoBRET screen HiBiT-HTR7 in HEK293; format: binding; details: HTR7
T1 construct: purchased Promega (in-house HiBiT-GPCR construct library, NanoBRET)
Protocol: (§1) Each tracer candidate was screened across the entire library of HiBiT-GPCR constructs using NanoBRET as the detection modality. As depicted in Figure 4A, the specificity of interactions was evaluated through decrease in BRET due to competitive displacement of a bound tracer by excess parental compound. Each tracer was analyzed for binding to each HiBiT-GPCR fusion in the absence and in the presence of competing parental compound. Briefly, HEK293 cells were transfected with HiBiT-GPCR constructs diluted into promoterless DNA to reduce expression and maximize translocation to the cell surface. Each tracer candidate was then screened at concentrations of 1 μM and 0.1 μM across cells expressing these fusions. Cells were treated for 1.5 h with tracer either alone or in the presence of 20 μM competing parental compound (i.e., control). BRET was measured upon addition of purified LgBiT and subsequent complementation with HiBiT genetically fused to a GPCR. The specificity of interactions was assessed through a decrease in BRET signal due to competitive displacement of the bound tracer. To further gauge the robustness of these interactions, the fold response over the control (i.e., BRETtracer/BRETcontrol) was calculated. We chose a 1.5-fold response, which translates to ≥7-fold signal over noise as the minimal threshold required to score an interaction as positive.
(§2) HiBiT-GPCR DNA constructs were diluted in 10 mM Tris pH 8 to a final concentration of 0.01 μg/μL, arrayed in 96-well plates and stored at −20 °C. For transfection, HEK293 cells were suspended in Opti-MEM (without phenol red) supplemented with 2% fetal bovine serum (Seradigm) and 100 units/mL penicillin–streptomycin (Gibco) at a final concentration of 220,000 cells/mL and dispensed into white 96-well plates at 90 μL/well. Subsequent transfections and screens were carried using an Agilent Bravo Automated Liquid Handling Platform. First, the 96-well HiBiT DNA arrays were diluted 25-fold in Opti-MEM (without serum or phenol red) to a final concentration of 0.0004 μg/μL and 20 μL of the diluted DNAs were transferred into new 96-well plates. Next, promoterless carrier DNA (1 μg/μL) was diluted 25-fold (0.04 μg/μL) and then dispensed into the diluted arrays at 20 μL/well. Following brief mixing, Viafect transfection reagent (Promega) diluted 16-fold into Opti-MEM was dispensed into the plates at 40 μL/well. After mixing by pipetting, plates were incubated for 10 min on the pipetting station deck. The DNA-transfection reagent complexes were then added to plates containing cells. To facilitate the screen, 10 μL of DNA-transfection reagent complexes were added in duplicates to the top 4 and bottom 4 rows, resulting in two identical 48-well arrays per plate. Plates with transfected cells were incubated for 18–20 h at 37 °C/5% CO2. A screen of each tracer across the entire library using two different concentrations requires duplicate plates of transfected cells. Depending on the number of tracers being screened, transfections can be scaled up using the same ratios. The next day, for each tracer, four 20× screening solutions in tracer dilution buffer (Promega) were prepared: two duplicates at final concentration of 20 μM and two duplicates at a final concentration of 2 μM. […] The four resulting solutions were diluted 4-fold in Opti-MEM without serum or phenol red to generate 5× solutions (5 µM and 0.5 µM tracer +/− 100 μM competing compound). To screen the library, a BioTek MultiFlo FX liquid dispenser was used to dispense 22.5 µL of tracer solution to the top 4 rows and 22.5 µL tracer + competing compound solution to the 4 bottom rows. Plates were briefly mixed on an orbital shaker and incubated for 1.5 h at room temperature. […] Plates were briefly mixed on an orbital shaker and incubated for 15 min to allow complementation.

[2] = target: T2, NPY4R (Homo sapiens, UniProt P50391); assay: NanoBRET screen HiBiT-NPY4R in HEK293; format: binding; details: NPY4R
T2 construct: purchased Promega (in-house HiBiT-GPCR construct library, NanoBRET)
T2 sequence (P50391 whole entry): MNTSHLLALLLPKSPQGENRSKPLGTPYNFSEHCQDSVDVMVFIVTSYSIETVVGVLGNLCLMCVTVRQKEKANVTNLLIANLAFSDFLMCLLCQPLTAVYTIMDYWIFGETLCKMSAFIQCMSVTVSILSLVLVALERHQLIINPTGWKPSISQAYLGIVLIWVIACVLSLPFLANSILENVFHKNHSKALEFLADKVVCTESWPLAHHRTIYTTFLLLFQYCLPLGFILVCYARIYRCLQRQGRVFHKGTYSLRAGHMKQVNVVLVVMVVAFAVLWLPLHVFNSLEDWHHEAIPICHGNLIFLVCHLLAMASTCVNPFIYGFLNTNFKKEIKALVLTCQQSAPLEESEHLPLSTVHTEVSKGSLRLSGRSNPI
Protocol: as §1, §2

T1 sequence (P34969 whole entry): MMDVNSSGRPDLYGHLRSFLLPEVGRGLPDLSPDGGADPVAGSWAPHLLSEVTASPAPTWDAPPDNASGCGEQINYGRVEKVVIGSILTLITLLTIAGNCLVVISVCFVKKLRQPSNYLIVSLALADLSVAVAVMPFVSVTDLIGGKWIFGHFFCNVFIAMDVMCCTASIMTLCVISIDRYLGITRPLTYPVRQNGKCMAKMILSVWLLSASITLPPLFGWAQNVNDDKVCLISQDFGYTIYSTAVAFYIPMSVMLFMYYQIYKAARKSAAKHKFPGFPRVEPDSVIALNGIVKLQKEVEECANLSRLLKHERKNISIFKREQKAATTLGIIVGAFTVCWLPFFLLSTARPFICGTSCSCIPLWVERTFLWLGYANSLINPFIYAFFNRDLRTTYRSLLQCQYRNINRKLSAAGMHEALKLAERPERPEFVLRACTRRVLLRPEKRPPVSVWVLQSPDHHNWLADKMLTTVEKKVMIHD

| Structure (SMILES) | NanoBRET Fold Response ([1]; 0.1μM tracer) | NanoBRET Fold Response ([1]; 1μM tracer) | NanoBRET Fold Response ([2]; 0.1μM tracer) | NanoBRET Fold Response ([2]; 1μM tracer) | NanoBRET Fold Response ([1]; tracer 0.1μM) | NanoBRET Fold Response ([1]; tracer 1μM) | NanoBRET Fold Response ([2]; tracer 0.1μM) | NanoBRET Fold Response ([2]; tracer 1μM) |
| --- | --- | --- | --- | --- | --- | --- | --- | --- |
| O=C(CCOCCOCCOCCOCCNC(=O)CCc1ccc2n1[B-](F)(F)[N+]1=C(c3ccc[nH]3)C=CC1=C2)NCCCN1CCN(C2=Nc3cc(Cl)ccc3Nc3ccccc32)CC1 [Clozapine-a-2-NB590] | 1.22 | 1.08 | 0.88 | 1.40 |  |  |  |  |
| Cc1nc2n(c(=O)c1CCN1CCC(c3noc4cc(F)ccc34)CC1)CCCC2OC(=O)NCCOCCOCCOCCOCCNC(=O)CCc1ccc2n1[B-](F)(F)[N+]1=C(c3ccc[nH]3)C=CC1=C2 (centres unmarked) [Risperidone-2-NB590] |  |  |  |  | 1.06 | 1.19 | 0.95 | 1.02 |
